From US11912703B2, “6-azaindole compounds” (BRISTOL-MYERS SQUIBB COMPANY, priority 2017, dated 2024) come the findings set out here.

One experiment deals with human TLR8 (Homo sapiens (Human), UniProt Q9NR97). Put plainly: TLR8 inhibition reporter assay (HEK-Blue SEAP).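 Further: SEAP driven by IFN-β minimal promoter with five NF-κB and AP-1 sites, compounds tested 0.05 nM to 50 µM, 22 h incubation, inhibition relative to agonist plus DMSO wells.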
The next experiment concerns the target human TLR7 (Homo sapiens (Human), UniProt Q9NYK1). As to the kind of experiment: TLR7 inhibition reporter assay (HEK-Blue SEAP). The format is cell-based. The settings on record: HEK-Blue cells overexpressing human TLR7, gardiquimod 7.5 μM stimulation.
A further experiment deals with human TLR9 (Homo sapiens (Human), UniProt Q9NR96). Put plainly: TLR9 inhibition reporter assay (HEK-Blue SEAP).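 Further: SEAP driven by IFN-β minimal promoter carrying five NF-κB and AP-1 sites, 22 h at 37 °C, compounds 0.05 nM–50 µM, inhibition scaled between agonist-plus-DMSO and reference-inhibitor wells.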
Chain of human TLR9 (Q9NR96 26-1032): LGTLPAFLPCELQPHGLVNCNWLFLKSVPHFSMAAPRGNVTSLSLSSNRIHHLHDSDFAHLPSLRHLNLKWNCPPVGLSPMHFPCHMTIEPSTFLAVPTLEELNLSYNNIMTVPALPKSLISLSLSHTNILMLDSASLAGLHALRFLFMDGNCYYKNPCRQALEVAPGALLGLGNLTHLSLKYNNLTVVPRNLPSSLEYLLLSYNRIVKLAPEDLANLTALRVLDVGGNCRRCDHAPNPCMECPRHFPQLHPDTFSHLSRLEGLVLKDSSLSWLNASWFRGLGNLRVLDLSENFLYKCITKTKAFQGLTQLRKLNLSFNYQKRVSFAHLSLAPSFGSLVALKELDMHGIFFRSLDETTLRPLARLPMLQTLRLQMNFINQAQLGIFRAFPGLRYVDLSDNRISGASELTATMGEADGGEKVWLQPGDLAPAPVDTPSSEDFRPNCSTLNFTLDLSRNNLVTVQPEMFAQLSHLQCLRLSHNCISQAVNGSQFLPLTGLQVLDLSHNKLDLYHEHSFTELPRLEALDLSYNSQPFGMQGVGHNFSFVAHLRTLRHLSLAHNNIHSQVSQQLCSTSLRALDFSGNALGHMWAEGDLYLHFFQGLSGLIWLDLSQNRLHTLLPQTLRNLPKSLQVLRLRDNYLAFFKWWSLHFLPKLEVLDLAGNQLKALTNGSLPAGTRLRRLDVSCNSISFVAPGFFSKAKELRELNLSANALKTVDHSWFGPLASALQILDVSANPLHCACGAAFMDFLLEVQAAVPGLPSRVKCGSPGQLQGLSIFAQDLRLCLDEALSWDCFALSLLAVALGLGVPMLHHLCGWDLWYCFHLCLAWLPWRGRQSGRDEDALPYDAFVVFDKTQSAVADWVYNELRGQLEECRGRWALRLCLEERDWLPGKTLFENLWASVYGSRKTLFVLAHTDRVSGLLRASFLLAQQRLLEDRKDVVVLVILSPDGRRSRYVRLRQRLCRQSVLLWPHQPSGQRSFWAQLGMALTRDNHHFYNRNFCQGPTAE
Where [1] appears, read: read-out: TLR8 IC50; HEK-Blue cells overexpressing human TLR8, R848 15.9 μM stimulation, SEAP reporter.
Setting [2] is: read-out: TLR9 IC50; HEK-Blue cells overexpressing human TLR9, ODN2006 5 nM stimulation, SEAP reporter.
Setting [3] is: read-out: TLR8 IC50; HEK-Blue cells overexpressing human TLR8; R848 15.9 μM stimulation; SEAP reporter.
Where [4] appears, read: read-out: TLR9 IC50; HEK-Blue cells overexpressing human TLR9; ODN2006 5 nM stimulation; SEAP reporter.

Where two headings read alike, the source gives them in different places.

Chain of human TLR7 (Q9NYK1 27-1049): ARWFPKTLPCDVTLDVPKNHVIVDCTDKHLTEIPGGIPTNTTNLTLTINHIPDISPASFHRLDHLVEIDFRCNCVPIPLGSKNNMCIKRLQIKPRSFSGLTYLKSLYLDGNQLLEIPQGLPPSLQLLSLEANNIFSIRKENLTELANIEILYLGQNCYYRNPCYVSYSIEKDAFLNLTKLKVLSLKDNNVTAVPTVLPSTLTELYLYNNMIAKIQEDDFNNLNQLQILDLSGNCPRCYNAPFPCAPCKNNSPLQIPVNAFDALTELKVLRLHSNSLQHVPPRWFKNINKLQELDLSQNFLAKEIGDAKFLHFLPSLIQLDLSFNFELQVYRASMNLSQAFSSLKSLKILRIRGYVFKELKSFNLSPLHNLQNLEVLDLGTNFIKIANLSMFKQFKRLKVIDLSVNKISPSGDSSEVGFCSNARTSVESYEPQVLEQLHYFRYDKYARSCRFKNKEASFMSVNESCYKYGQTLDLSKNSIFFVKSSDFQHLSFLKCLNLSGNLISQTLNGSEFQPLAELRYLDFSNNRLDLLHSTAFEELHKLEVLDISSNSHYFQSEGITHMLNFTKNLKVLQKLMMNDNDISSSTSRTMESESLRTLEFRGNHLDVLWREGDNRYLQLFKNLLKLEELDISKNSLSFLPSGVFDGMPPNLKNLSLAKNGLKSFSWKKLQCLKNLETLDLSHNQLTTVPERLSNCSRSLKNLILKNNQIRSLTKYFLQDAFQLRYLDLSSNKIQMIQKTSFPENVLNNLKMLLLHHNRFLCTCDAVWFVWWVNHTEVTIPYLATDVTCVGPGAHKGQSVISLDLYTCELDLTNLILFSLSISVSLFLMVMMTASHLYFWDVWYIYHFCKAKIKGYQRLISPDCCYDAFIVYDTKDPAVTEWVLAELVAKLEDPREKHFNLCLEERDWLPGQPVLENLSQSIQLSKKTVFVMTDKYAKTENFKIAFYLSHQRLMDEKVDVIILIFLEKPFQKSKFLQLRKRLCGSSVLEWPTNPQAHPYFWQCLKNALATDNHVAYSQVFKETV
Chain of human TLR8 (Q9NR97 27-1041): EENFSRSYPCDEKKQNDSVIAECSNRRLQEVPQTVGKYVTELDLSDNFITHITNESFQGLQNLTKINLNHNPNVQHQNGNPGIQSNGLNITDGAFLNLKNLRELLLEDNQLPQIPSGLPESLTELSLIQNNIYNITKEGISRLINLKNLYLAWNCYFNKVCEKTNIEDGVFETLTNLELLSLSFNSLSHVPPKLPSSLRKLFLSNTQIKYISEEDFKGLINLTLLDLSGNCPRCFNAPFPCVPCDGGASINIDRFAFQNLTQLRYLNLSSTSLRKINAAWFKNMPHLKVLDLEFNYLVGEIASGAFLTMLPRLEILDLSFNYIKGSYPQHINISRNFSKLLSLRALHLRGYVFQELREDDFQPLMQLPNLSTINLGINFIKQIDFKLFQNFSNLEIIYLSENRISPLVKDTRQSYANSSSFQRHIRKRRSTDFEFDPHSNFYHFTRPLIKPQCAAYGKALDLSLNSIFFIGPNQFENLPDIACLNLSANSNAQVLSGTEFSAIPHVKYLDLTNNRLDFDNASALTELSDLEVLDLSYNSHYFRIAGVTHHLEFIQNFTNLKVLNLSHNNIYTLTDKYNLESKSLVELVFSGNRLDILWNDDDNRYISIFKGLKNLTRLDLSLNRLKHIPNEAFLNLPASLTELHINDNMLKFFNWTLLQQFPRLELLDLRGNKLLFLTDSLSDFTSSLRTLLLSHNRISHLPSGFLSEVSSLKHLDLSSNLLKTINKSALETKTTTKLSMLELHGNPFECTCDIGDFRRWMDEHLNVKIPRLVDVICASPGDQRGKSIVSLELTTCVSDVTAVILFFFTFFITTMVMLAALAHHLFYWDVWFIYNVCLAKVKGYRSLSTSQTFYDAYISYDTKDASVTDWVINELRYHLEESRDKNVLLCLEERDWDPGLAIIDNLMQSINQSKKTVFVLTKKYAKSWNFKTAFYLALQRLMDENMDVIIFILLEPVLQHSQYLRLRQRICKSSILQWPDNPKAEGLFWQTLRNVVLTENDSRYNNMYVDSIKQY
Method for human TLR9: HEK-Blue™-cells (Invivogen) overexpressing human TLR7, TLR8 or TLR9 receptors were used for screening inhibitors of these receptors using an inducible SEAP (secreted embryonic alkaline phosphatase) reporter gene under the control of the IFN-β minimal promoter fused to five NF-κB and AP-1-binding sites. Briefly, cells are seeded into Greiner 384 well plates (15000 cells per well for TLR7, 20,000 for TLR8 and 25,000 for TLR9) and then treated with test compounds in DMSO to yield a final dose response concentration range of 0.05 nM-50 μM. After a 30 minute compound pre-treatment at room temperature, the cells are then stimulated with a TLR7 ligand (gardiquimod at a final concentration of 7.5 μM), TLR8 ligand (R848 at a final concentration of 15.9 μM) or TLR9 ligand (ODN2006 at a final concentration of 5 nM) to activate NF-κB and AP-1 which induce the production of SEAP. After a 22 hour incubation at 37° C., 500 CO2, SEAP levels are determined with the addition of HEK-Blue™ Detection reagent (Invivogen), a cell culture medium that allows for detection of SEAP, according to manufacturer's specifications.

Consider `Cc1c(-c2[nH]c3cnc(N4CCN(CCS(C)(=O)=O)CC4)c(C)c3c2C(C)C)cn2ncnc2c1C` [Example 415], for which the half-maximal inhibitory concentration (IC50) at human TLR8 (setting [1]) was 5.2 nM; against human TLR7 it was 26 nM; on human TLR9 (setting [2]), more than 50000 nM.

`Cc1c(-c2[nH]c3cnc(N4CC5(CN(CC#N)C5)C4)c(F)c3c2C(C)C)cn2ncnc2c1C` [Example 397]: the IC50 at human TLR8 (setting [1]) was 30 nM; at human TLR7, 48 nM; at human TLR9 (setting [2]), 43200 nM.

In the case of `COc1cc(-c2[nH]c3cnc(C4CCC(N(C)C(C)C)CC4)c(F)c3c2C(C)C)cn2ncnc12` (stereo not drawn) [Example 76], the results for the half-maximal inhibitory concentration (IC50) on human TLR8 (setting [1]), at human TLR7 and at human TLR9 (setting [2]) were 3.8 nM, 0.58 nM and 959 nM, respectively.

As to `Cc1c(-c2[nH]c3cnc(C4CCC(NCC(C)(C)C)CC4)c(C)c3c2C(C)C)cn2ncnc2c1C` (stereo not drawn) [Example 247], the IC50 at human TLR8 (setting [1]) was found to be 10 nM; against human TLR7, 16 nM; on human TLR9 (setting [2]), 718 nM.

In the case of `COc1cc(-c2[nH]c3cnc(N4CC5(CN(CCS(C)(=O)=O)C5)C4)c(F)c3c2C(C)C)cn2ncnc12` [Example 357], the IC50 on human TLR8 (setting [1]) stood at 10 nM; at human TLR7 it was 21 nM; on human TLR9 (setting [2]), 37400 nM.

In the case of `COc1cc(-c2[nH]c3cnc(N4CCNC[C@H]4C)c(F)c3c2C(C)C)cn2ncnc12` [compound 354], the IC50 at human TLR8 (setting [1]) stood at 9.9 nM; against human TLR7 it was 1.6 nM; on human TLR9 (setting [2]), 3430 nM.

Turning to `Cc1cc(-c2[nH]c3cnc(C4CCN(C(C)C)CC4)c(F)c3c2C(C)C)cc(C)n1` [Example 97], the IC50 at human TLR8 (setting [1]) is 7.4 nM; against human TLR7 it was 2.5 nM; on human TLR9 (setting [2]) it was 1080 nM.

As to `COc1cc(-c2[nH]c3cnc(C4CCC(NCC5(C)COC5)CC4)c(C)c3c2C(C)C)cn2ncnc12` (stereo not drawn) [Example 270], the IC50 on human TLR8 (setting [1]) was 3.2 nM; against human TLR7, 2.6 nM; on human TLR9 (setting [2]) it was 392 nM.

As for `COc1cc(-c2[nH]c3cnc(N4CCC(NCC(=O)N(C)C)CC4)cc3c2C(C)C)cn2ncnc12` [Example 333], the results for the IC50 at human TLR8 (setting [1]), on human TLR7 and on human TLR9 (setting [2]) were 4.3 nM, 5.4 nM and 1060 nM, respectively.

As to `Cc1c(-c2[nH]c3cnc(N4CCN(CC(=O)N(C)C)C[C@H]4C)c(F)c3c2C(C)C)cn2ncnc2c1C` [Example 466], the values for the half-maximal inhibitory concentration (IC50) at human TLR8 (setting [3]), against human TLR7 and on human TLR9 (setting [4]) were 2.5 nM, 16 nM and 47500 nM, respectively.

With `Cc1cc(-c2[nH]c3cnc(N4CCC(NC(C)C)CC4)c(F)c3c2C(C)C)cn2ncnc12` [Example 219], the 50% inhibitory concentration (IC50) at human TLR8 (setting [3]) was found to be 0.56 nM; at human TLR7 it was 0.85 nM; on human TLR9 (setting [4]), 1890 nM.

As to `COCCN1CCN(c2ncc3[nH]c(-c4cc(OC)c5ncnn5c4)c(C(C)C)c3c2F)[C@H](C)C1` [Example 444], the values for the half-inhibitory concentration (IC50) on human TLR8 (setting [1]), against human TLR7 and at human TLR9 (setting [2]) were 6.7 nM, 5 nM and 19900 nM, respectively.

For `CNC(=O)CN1CCC(c2cc3c(C(C)C)c(-c4cc(C)c5ncnn5c4)[nH]c3cn2)CC1` [Example 287], the values for the IC50 at human TLR8 (setting [1]), at human TLR7 and on human TLR9 (setting [2]) were 16 nM, 2 nM and 718 nM, respectively.

Regarding `COc1cc(-c2[nH]c3cnc(N4CCC(N(C)CC(N)=O)CC4)c(F)c3c2C(C)C)cn2ncnc12` [Example 222], the results for the concentration for half-maximal inhibition (IC50) on human TLR8 (setting [3]), against human TLR7 and at human TLR9 (setting [4]) were 2.7 nM, 3.2 nM and 5770 nM, respectively.

For the molecule `Cc1c(-c2[nH]c3cnc(C4CCC(NC(C)C)CC4)c(F)c3c2C(C)C)cn2ncnc2c1C` (stereo not drawn) [Example 85], the values for the concentration for half-maximal inhibition (IC50) at human TLR8 (setting [1]), against human TLR7 and on human TLR9 (setting [2]) were 1.1 nM, 2.6 nM and 924 nM, respectively.

With `COc1cc(-c2[nH]c3cnc(C4CCC(NCC5(C)COC5)C4)cc3c2C(C)C)cn2ncnc12` (stereo not drawn) [Example 275], the IC50 at human TLR8 (setting [1]) was 37 nM; at human TLR7, 35 nM; at human TLR9 (setting [2]), 845 nM.

For `COc1cc(-c2[nH]c3cnc(C4CCC(NC5COC5)CC4)c(C)c3c2C(C)C)cn2ncnc12` (stereo not drawn) [Example 243], the concentration for half-maximal inhibition (IC50) on human TLR8 (setting [1]) came to 4.8 nM; at human TLR7, 0.79 nM; on human TLR9 (setting [2]), 430 nM.

On to `Cc1c(-c2[nH]c3cnc(N4CCN(C(=O)CN(C)C)C[C@H]4C)c(F)c3c2C(C)C)cn2ncnc2c1C` [Example 470], for which the concentration for half-maximal inhibition (IC50) was found to be 0.49 nM at human TLR8 (setting [3]), 4.9 nM at human TLR7 and 15500 nM at human TLR9 (setting [4]).

As to `COc1cc(-c2[nH]c3cnc(N4CCC(N(C)C(C)C)CC4)c(C)c3c2C(C)C)cn2ncnc12` [Example 86], the values for the IC50 on human TLR8 (setting [1]), on human TLR7 and at human TLR9 (setting [2]) were 0.43 nM, 0.37 nM and 1130 nM, respectively.

As to `COc1cc(-c2[nH]c3cnc(C4CCC(NCC(C)(C)F)CC4)c(C)c3c2C(C)C)cn2ncnc12` (stereo not drawn) [Example 271], the figures for the IC50 at human TLR8 (setting [1]), at human TLR7 and on human TLR9 (setting [2]) were 4.2 nM, 1.6 nM and 333 nM, respectively.

As to `COc1cc(-c2[nH]c3cnc(C4CCC(N5CC6(COC6)C5)C4)cc3c2C(C)C)cn2ncnc12` (stereo not drawn) [Example 209], the concentration for half-maximal inhibition (IC50) at human TLR8 (setting [1]) is 97 nM; on human TLR7, 29 nM; on human TLR9 (setting [2]), 1080 nM.

On to `Cc1c(-c2[nH]c3cnc(C4CCC(NC(C)C)CC4)c(C)c3c2C(C)C)cn2ncnc2c1C` (stereo not drawn) [Example 61], for which the IC50 at human TLR8 (setting [1]) turned out to be 35 nM; against human TLR7 it was 28 nM; on human TLR9 (setting [2]) it was 346 nM.

For `COc1cc(-c2[nH]c3cnc(C4CCC(NCC(C)(C)C)CC4)cc3c2C(C)C)cn2ncnc12` (stereo not drawn) [Example 325], the IC50 on human TLR8 (setting [1]) came out at 12 nM; against human TLR7 it was 2.4 nM; at human TLR9 (setting [2]), 512 nM.

For the molecule `COc1cc(-c2[nH]c3cnc(C4CCC(NC5CCOCC5)CC4)c(C)c3c2C(C)C)cn2ncnc12` (stereo not drawn) [Example 241], the values for the 50% inhibitory concentration (IC50) at human TLR8 (setting [1]), against human TLR7 and on human TLR9 (setting [2]) were 11 nM, 3.5 nM and 285 nM, respectively.

Take `CNC(=O)CN1CC2(C1)CN(c1ncc3[nH]c(-c4cc(OC)c5ncnn5c4)c(C(C)C)c3c1F)C2` [Example 356, 2-(6-(4-fluoro-3-isopropyl-2-(8-methoxy-[1,2,4]triazolo[1,5-a]pyridin-6-yl)-1H-pyrrolo[2,3-c]pyridin-5-yl)-2,6-diazaspiro[3.3]heptan-2-yl)-N-methylacetamide]: the IC50 was 6.1 nM on human TLR8 (setting [1]), 15 nM at human TLR7 and 18500 nM on human TLR9 (setting [2]).

For `Cc1c(-c2[nH]c3cnc(N4CC5(CN(CC6(C)COC6)C5)C4)c(F)c3c2C(C)C)cn2ncnc2c1C` [Example 405], the values for the IC50 on human TLR8 (setting [1]), on human TLR7 and on human TLR9 (setting [2]) were 15 nM, 46 nM and 17100 nM, respectively.

Consider `Cc1c(-c2[nH]c3cnc(C4CCC(NCC5(C)COC5)CC4)c(C)c3c2C(C)C)cn2ncnc2c1C` (stereo not drawn) [Example 204], for which the IC50 on human TLR8 (setting [1]) came to 3.1 nM; against human TLR7 it was 6.6 nM; at human TLR9 (setting [2]), 466 nM.

For `Cc1cc(-c2[nH]c3cnc(N4CCC(N(C)CC(C)(C)C)CC4)c(F)c3c2C(C)C)cn2ncnc12` [Example 196], the IC50 at human TLR8 (setting [1]) was determined as 1.1 nM; on human TLR7, 3 nM; at human TLR9 (setting [2]), 2080 nM.

For the molecule `Cc1c(-c2[nH]c3cnc(N4CC5(CN(CC6CCC6)C5)C4)c(F)c3c2C(C)C)cn2ncnc2c1C` [Example 404], the concentration for half-maximal inhibition (IC50) worked out at 4 nM at human TLR8 (setting [1]), 32 nM on human TLR7 and 5810 nM on human TLR9 (setting [2]).

`COc1cc(-c2[nH]c3cnc(C4CCC(NCC(C)(C)OC)C4)cc3c2C(C)C)cn2ncnc12` (stereo not drawn) [Example 211]: the IC50 at human TLR8 (setting [1]) was determined as 44 nM; at human TLR7, 41 nM; at human TLR9 (setting [2]), 2250 nM.

For the molecule `Cc1cc(-c2[nH]c3cnc(N4CCC(N(C)C5COC5)CC4)c(F)c3c2C(C)C)cn2ncnc12` [Example 130], the 50% inhibitory concentration (IC50) at human TLR8 (setting [1]) was found to be 0.76 nM; on human TLR7, 1.3 nM; at human TLR9 (setting [2]) it was 5250 nM.
